Results: patent US11504362B2, “Liquid dosage forms to treat cancer” (Exelixis, Inc., priority 2017, dated 2022)
Several values for one entry are separate records, joined by “and”; a condition that tells them apart may be missing. Identical values can stand only once. Entries after “also recorded” stand apart in the source; their conditions may differ. Like-named read-outs stand apart in the source and are kept apart here.

Key:
VEGFR2 = VEGFR2 (Mus musculus, UniProt P35918); conditions: administration to mice; Yakes, et al. 2011; cited from earlier work
Chain of VEGFR2 (P35918 20-1345): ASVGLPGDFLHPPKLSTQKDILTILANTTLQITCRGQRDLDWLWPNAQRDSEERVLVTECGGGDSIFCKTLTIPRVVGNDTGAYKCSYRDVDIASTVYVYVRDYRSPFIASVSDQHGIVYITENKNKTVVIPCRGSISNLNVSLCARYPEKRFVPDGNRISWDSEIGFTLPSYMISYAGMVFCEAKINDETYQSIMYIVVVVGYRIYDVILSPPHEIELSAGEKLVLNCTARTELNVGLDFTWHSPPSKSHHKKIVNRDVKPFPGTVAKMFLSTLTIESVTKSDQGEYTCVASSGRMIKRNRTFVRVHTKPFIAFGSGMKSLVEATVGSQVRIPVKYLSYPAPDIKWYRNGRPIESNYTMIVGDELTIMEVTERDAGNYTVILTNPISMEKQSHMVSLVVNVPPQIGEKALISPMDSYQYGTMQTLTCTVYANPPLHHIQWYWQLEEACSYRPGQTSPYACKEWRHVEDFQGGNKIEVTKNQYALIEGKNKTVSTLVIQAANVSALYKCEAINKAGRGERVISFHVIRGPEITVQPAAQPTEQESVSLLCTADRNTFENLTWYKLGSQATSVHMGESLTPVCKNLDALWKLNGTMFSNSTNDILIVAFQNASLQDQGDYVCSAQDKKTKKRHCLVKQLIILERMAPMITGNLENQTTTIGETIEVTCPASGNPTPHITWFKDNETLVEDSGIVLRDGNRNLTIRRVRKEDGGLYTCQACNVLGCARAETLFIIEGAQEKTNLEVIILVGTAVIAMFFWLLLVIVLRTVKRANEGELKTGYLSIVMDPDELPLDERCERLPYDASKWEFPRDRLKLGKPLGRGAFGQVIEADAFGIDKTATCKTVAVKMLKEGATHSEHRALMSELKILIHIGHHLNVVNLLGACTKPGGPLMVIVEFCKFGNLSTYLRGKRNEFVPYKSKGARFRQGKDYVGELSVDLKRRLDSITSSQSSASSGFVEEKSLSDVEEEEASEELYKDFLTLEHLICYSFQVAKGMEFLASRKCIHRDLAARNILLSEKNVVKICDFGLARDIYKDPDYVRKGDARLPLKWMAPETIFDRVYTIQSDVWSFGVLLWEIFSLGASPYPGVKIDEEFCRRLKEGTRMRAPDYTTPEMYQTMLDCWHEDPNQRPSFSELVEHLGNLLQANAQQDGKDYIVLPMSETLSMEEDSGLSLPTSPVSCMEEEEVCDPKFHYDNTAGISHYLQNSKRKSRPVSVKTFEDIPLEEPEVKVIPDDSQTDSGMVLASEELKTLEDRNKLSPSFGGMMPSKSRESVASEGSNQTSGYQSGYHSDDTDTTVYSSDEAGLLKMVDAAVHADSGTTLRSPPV

[1] = cited from earlier work; for CL/F / t1/2 / Tmax / Cmax: single oral 140 mg FBE; for CL/F / t1/2 / Cmax: mean ± CV %; for Tmax: median (minimum, maximum); for Cmax: plasma, n = 72
[2] = Safety evaluation (AEs, vital signs, ECG, laboratory tests) in Phase 1 mass balance study; assay type: in vivo, human
Procedure: Safety: Safety evaluations included assessments of AEs, vital signs, electrocardiogram (ECG), laboratory tests, and concomitant medications. Adverse event seriousness, severity grade, and relationship to study treatment were assessed by the investigator. Severity grade was defined by the National Cancer Institute Common Terminology Criteria for Adverse Events (CTCAE) version 4.0.
Adverse event terms were standardized using the Medical Dictionary for Regulatory Activities and tabulated by system organ class and preferred term.

[3] = test system: tumor models (human medullary thyroid cancer, human breast cancer, and rat glioma); conditions: cited from earlier work
[4] = Plasma pharmacokinetics of XL184 and metabolites by LC/MS/MS method; conditions: human, in vivo
Procedure: (§1) Pharmacokinetics: Serial blood, urine, and feces were collected at specified times following dosing.
(§2) All samples collected for radioactivity analysis were analyzed for total radioactivity.
Detailed reports of the bioanalytical methodologies and results accompany the clinical study report.
The other minor metabolite in plasma, p-Fluoroaniline, was analyzed by Exelixis using a validated LC/MS/MS method.
PK variables were computed using WinNonlin Professional, version 5.2.

[5] = male, human, in vivo
Procedure: as §1, §2
Blood samples (4 mL) for whole blood analysis of total radioactivity were collected within 15 minutes pre-dose and at 1, 2, 4, 8, 14, 24, and 72 hours post-dose. Prior to study initiation, the Celerion Scintillation Laboratory supplied to the Celerion clinic complete written instructions for collection, handling, and processing of samples. Samples collected were used to determine the percentage of radioactivity associated with erythrocytes in whole blood over time (calculated only for time points that whole blood was collected).
Individual dosing containers (including the dosage form) were analyzed pre-dose and post-dose for radioactivity, with the (post-dose−pre-dose) difference being the administered dose. Whole blood, plasma, urine, feces, and emesis (if applicable) were analyzed for radioactivity content by liquid scintillation counting procedures. Whole blood and fecal samples were dried and oxidized prior to counting. Detailed reports of scintillation counting method and results for total radioactivity accompany the clinical study report. […]
The Cmax and time to peak concentration (tmax) were directly determined from the observed blood/plasma concentrations data. […]

[6] = rodent and non-rodent models; cited from earlier work
[7] = Percentage of 14C radioactivity associated with erythrocytes in whole blood (ETR); assay type: in vivo, human; conditions: single 175 mg oral dose
Procedure: To determine the percentage of radioactivity associated with erythrocytes in whole blood over time (ETR; calculated only for time points that whole blood is collected), the following was calculated:
The amount of ^14C radioactivity in plasma versus whole blood, adjusted for the hematocrit, at the specific time points of comparison (ETR=Xe/Xb=1−[Cp*(1−Hct)/Cb], where Xe and Xb stands for amount of radioactivity in erythrocyte or whole blood, respectively. Hematocrit values for Days-1, 2, and 4 were averaged for use in this calculation.
Blood samples (4 mL) for whole blood analysis of total radioactivity were collected within 15 minutes pre-dose and at 1, 2, 4, 8, 14, 24, and 72 hours post-dose. […] Samples collected were used to determine the percentage of radioactivity associated with erythrocytes in whole blood over time (calculated only for time points that whole blood was collected).
To determine the percentage of radioactivity associated with erythrocytes in whole blood over time (calculated only for time points where whole blood was collected), the following was calculated: the amount of radioactivity in plasma versus whole blood, adjusted for the hematocrit, at the specific time points of comparison (ETR=Xe/Xb=1−[Cp*(1-Hct)/Cb], where Cp stands for amount of radioactivity in plasma and Cb stands for the amount of radioactivity in blood and Hct stands for hematocrit value. Hematocrit values for Days-1, 2, and 4 were averaged for use in this calculation.

RET = conditions: administration to mice; Yakes, et al. 2011; cited from earlier work
clinical = conditions: human, in vivo
Procedure: Samples for 2 subjects were used for the investigation study. Therefore, only 6 subjects' PK profiles were determined using a radio-quantitation method.

[8] = po, 175 mg, Plasma concentration of XL184 by LC/MS/MS, single 175 mg oral XL184 L-malate, healthy male subjects, […], individual subject

## COc1cc2nccc(Oc3ccc(NC(=O)C4(C(=O)Nc5ccc(F)cc5)CC4)cc3)c2cc1OC [XL184, N-(4-{[6,7-bis(methyloxy)quinolin-4-yl]oxy}phenyl)-N′-(4-fluorophenyl)cyclopropane-1,1-dicarboxamide]
VEGFR2
  Inhibition of VEGFR2 in vivo: dose-dependent inhibition
[1]; 20 mg (FBE) tablet strength
  % CV of Cmax, AUC0-t, and AUC0-inf: 48-72%
[1]; 40 mg (FBE) tablet strength
  % CV of Cmax, AUC0-t, and AUC0-inf: 42-56%
[1]; 60 mg (FBE) tablet strength
  % CV of Cmax, AUC0-t, and AUC0-inf: 38-41%
[1]; 140 mg (FBE) capsule
  % CV of AUC0-inf: ~39%
  % CV of AUC0-t: ~37%
  % CV of Cmax: ~43%
[1]; 140 mg (FBE) tablet
  % CV of AUC0-inf: ~46%
  % CV of AUC0-t: ~44%
  % CV of Cmax: about 54%
[1]; capsule formulation
  CL/F: 2.69 ± 32 L/h
  t1/2: 112 ± 26 h
  Tmax: 4.00 (2.00, 5.04) h
  Cmax: 554 ± 43 ng/mL
[1]; tablet formulation
  CL/F: 2.61 ± 49 L/h
  t1/2: 115 ± 31 h
  Tmax: 3.49 (1.99, 24.00) h
  Cmax: 702 ± 54 ng/mL
[2]; 8 subjects
  Total number of TEAEs: 36
[2]; 31/36
  TEAEs resolved within 1 to 3 days: 86%
[2]; CTCAE version 4.0
  Severity of one event of treatment related dizziness: moderate (CTCAE grade 2)
  Severity of the majority of TEAEs: mild in severity (CTCAE grade 1)
[2]; changes from baseline
  Laboratory values: no clinically significant changes from baseline in any laboratory values; also recorded: no notable clinical laboratory findings
[2]; five subjects
  Subjects reporting TEAEs assessed as related to the study treatment: 62.5%
[2]; in vivo
  Vital signs and ECG evaluations: No remarkable on study results were noted
[2]; single 175 mg oral dose
  Tolerability: well tolerated
[2]; single 175 mg oral dose, 8 healthy male subjects
  Deaths, SAEs, discontinuations due to AEs, other significant AEs: no deaths, other SAEs, discontinuations due to AEs, or other significant AEs
[2]; six of 8 subjects
  Subjects reporting TEAEs: 75%
[2]; three subjects
  Subjects reporting flatulence: 37.5%
  Subjects reporting headache: 37.5%
[2]; within 4 hours of dosing
  Vomiting after dosing: No subject vomited within 4 hours of dosing
[3]; human medullary thyroid cancer, human breast cancer, and rat glioma models
  Tumor regression: marked tumor regression
[3]; multiple tumor models
  Tumor growth inhibition: significant tumor growth inhibition
[3]; within 24 hours after administration
  Immunohistochemistry findings: rapid effects on the endothelium, vascular breakdown, and tumor cell death
[4]; po, 175 mg, Plasma Concentrations of XL184 by LC/MS/MS Method, single 175 mg oral dose, Min (N=8)
  concentration at 8 h: 267 ng/mL
[4]; po, 175 mg, Plasma Concentrations of XL184 by LC/MS/MS Method, single 175 mg oral dose, individual subjects
  concentration at 8 h: 532 ng/mL
[4]; po, 175 mg, Plasma Concentrations of XL184 by LC/MS/MS Method, 14.00 h, single 175 mg oral dose, individual subjects
  concentration at 14 h: 488 ng/mL
[4]; [8]
  concentration at 48 h: 352 ng/mL
  concentration at 120 h: 156 ng/mL
[4]; male
  AUC0-24: 14300 ± 2600 (18) h · ng/mL
  AUC0-72: 35000 ± 6770 (19) h · ng/mL
  AUC0-inf: 68000 ± 6910 (10) h · ng/mL
  AUC0-t: 67200 ± 6880 (10) h · ng/mL
  Tmax: 1.49 (1.00, 3.00) h
[4]; male, Tmax
  Tmax: ~1.49 h
[4]; male, po, 175 mg, AUC0-24
  AUC0-t: 17600 ng·h/mL
[4]; male, po, 175 mg, AUC0-72
  AUC0-t: 46800 ng·h/mL
[4]; male, po, 175 mg, AUC0-inf
  AUC0-inf: 73100 ng·h/mL
[4]; male, po, 175 mg, AUC0-t
  AUC0-t: 72900 ng·h/mL
[4]; male, po, 175 mg, Cmax
  Cmax: 1250 ng/mL
[4]; male, po, 175 mg, t1/2
  half-life: 69 h
[5]
  kel of total radioactivity: 0.00308 h⁻¹
[6]
  Oral bioavailability: orally bioavailable
[7]; 1.00 h, Max (N=8)
  Percentage of 14C Radioactivity Associated with Erythrocytes in Whole Blood (ETR): 14%
[7]; 1.00 h, Mean (N=8)
  Percentage of 14C Radioactivity Associated with Erythrocytes in Whole Blood (ETR): 7.08%
[7]; 1.00 h, Median (N=8)
  Percentage of 14C Radioactivity Associated with Erythrocytes in Whole Blood (ETR): 8.0%
[7]; 1.00 h, Min (N=8)
  Percentage of 14C Radioactivity Associated with Erythrocytes in Whole Blood (ETR): −3.4%
[7]; 1.00 h, individual subjects
  Percentage of 14C Radioactivity Associated with Erythrocytes in Whole Blood (ETR): 6.87% and 14.1% (2×) and −3.37% and 9.27% and 3.64% and 9.17% and 2.89%
[7]; 2.00 h, GM, geometric mean (N=8)
  Percentage of 14C Radioactivity Associated with Erythrocytes in Whole Blood (ETR): 7.30%
[7]; 2.00 h, Max (N=8)
  Percentage of 14C Radioactivity Associated with Erythrocytes in Whole Blood (ETR): 14%
[7]; 2.00 h, Mean (N=8)
  Percentage of 14C Radioactivity Associated with Erythrocytes in Whole Blood (ETR): 7.85%
[7]; 2.00 h, Median (N=8)
  Percentage of 14C Radioactivity Associated with Erythrocytes in Whole Blood (ETR): 6.7%
[7]; 2.00 h, Min (N=8)
  Percentage of 14C Radioactivity Associated with Erythrocytes in Whole Blood (ETR): 4.1%
[7]; 2.00 h, individual subjects
  Percentage of 14C Radioactivity Associated with Erythrocytes in Whole Blood (ETR): 6.90% and 13.7% and 6.40% and 4.14% and 5.07% and 5.90% and 10.3% and 10.5%
[7]; 4.00 h, GM, geometric mean (N=8)
  Percentage of 14C Radioactivity Associated with Erythrocytes in Whole Blood (ETR): 5.96%
[7]; 4.00 h, Max (N=8)
  Percentage of 14C Radioactivity Associated with Erythrocytes in Whole Blood (ETR): 9.0%
[7]; 4.00 h, Mean (N=8)
  Percentage of 14C Radioactivity Associated with Erythrocytes in Whole Blood (ETR): 6.40%
[7]; 4.00 h, Median (N=8)
  Percentage of 14C Radioactivity Associated with Erythrocytes in Whole Blood (ETR): 6.5%
[7]; 4.00 h, Min (N=8)
  Percentage of 14C Radioactivity Associated with Erythrocytes in Whole Blood (ETR): 2.1%
[7]; 4.00 h, individual subjects
  Percentage of 14C Radioactivity Associated with Erythrocytes in Whole Blood (ETR): 8.27% and 6.45% and 6.26% and 8.96% and 6.74% and 2.05% and 6.55% and 5.88%
[7]; 8.00 h, GM, geometric mean (N=8)
  Percentage of 14C Radioactivity Associated with Erythrocytes in Whole Blood (ETR): 10.9%
[7]; 8.00 h, Max (N=8)
  Percentage of 14C Radioactivity Associated with Erythrocytes in Whole Blood (ETR): 17%
[7]; 8.00 h, Mean (N=8)
  Percentage of 14C Radioactivity Associated with Erythrocytes in Whole Blood (ETR): 12.2%
[7]; 8.00 h, Median (N=8)
  Percentage of 14C Radioactivity Associated with Erythrocytes in Whole Blood (ETR): 13%
[7]; 8.00 h, Min (N=8)
  Percentage of 14C Radioactivity Associated with Erythrocytes in Whole Blood (ETR): 3.4%
[7]; 8.00 h, individual subjects
  Percentage of 14C Radioactivity Associated with Erythrocytes in Whole Blood (ETR): 12.8% and 17.1% and 13.6% and 17.2% and 12.0% and 3.37% and 15.4% and 6.19%
[7]; 14.00 h, GM, geometric mean (N=8)
  Percentage of 14C Radioactivity Associated with Erythrocytes in Whole Blood (ETR): 11.7%
[7]; 14.00 h, Max (N=8)
  Percentage of 14C Radioactivity Associated with Erythrocytes in Whole Blood (ETR): 17%
[7]; 14.00 h, Mean (N=8)
  Percentage of 14C Radioactivity Associated with Erythrocytes in Whole Blood (ETR): 12.3%
[7]; 14.00 h, Median (N=8)
  Percentage of 14C Radioactivity Associated with Erythrocytes in Whole Blood (ETR): 13%
[7]; 14.00 h, Min (N=8)
  Percentage of 14C Radioactivity Associated with Erythrocytes in Whole Blood (ETR): 6.1%
[7]; 14.00 h, individual subjects
  Percentage of 14C Radioactivity Associated with Erythrocytes in Whole Blood (ETR): 6.13% and 17.0% and 12.1% and 7.45% and 12.7% and 14.1% and 14.0% and 14.9%
[7]
  Distribution of radioactivity between plasma and red blood cells: present primarily in plasma and not markedly associated with red blood cells
RET
  Inhibition of RET in vivo: dose-dependent inhibition
clinical
  AUC0-24: 10700 ± 3170 h · ngEq/mL
  AUC0-72: 23800 ± 9340 h · ngEq/mL
  AUC0-inf: 40300 ± 12300 h · ngEq/mL
  AUC0-t: 38100 ± 12800 h · ngEq/mL
clinical; po, 175 mg, Plasma concentration, 0.50 h, individual subject, single 175 mg oral [14C]-XL184 (100 μCi), healthy male subjects, radio-quantitative method
  concentration at 0.5 h: 283 ng/mL
clinical; po, 175 mg, Plasma concentration, 5.00 h, individual subject, single 175 mg oral [14C]-XL184 (100 μCi), healthy male subjects, radio-quantitative method
  concentration at 5 h: 512 ng/mL
clinical; po, 175 mg, Plasma concentration, 336.00 h, individual subject, single 175 mg oral [14C]-XL184 (100 μCi), healthy male subjects, radio-quantitative method
  concentration at 336 h: 10.3 ng/mL
clinical; po, 175 mg, Plasma concentration, individual subject, single 175 mg oral [14C]-XL184 (100 μCi), healthy male subjects, radio-quantitative method
  concentration at 72 h: 101 ng/mL
clinical; male
  ke1: 0.0112 ± 0.0053 h⁻¹
clinical; male, Tmax
  Tmax: ~1.99 h
clinical; male, po, 175 mg, Plasma concentration, Mean, N=6, single 175 mg oral [14C]-XL184 (100 μCi), healthy male subjects, radio-quantitative method
  concentration at 72 h: 159 ng/mL
clinical; male, po, 175 mg, Plasma concentration, Median, N=6, single 175 mg oral [14C]-XL184 (100 μCi), healthy male subjects, radio-quantitative method
  concentration at 72 h: 162 ng/mL
